Key:
[1] = test system: 3MR mice exposed to bleomycin; assay: Bleomycin induced lung injury model; format: in vivo, mouse
Experimental: One animal model study assessed the effect of clearance of senescence cells in the transgenic mouse strain 3MR that has bleomycin induced lung injury. In the bleomycin injury model for idiopathic pulmonary fibrosis, mice develop lung fibrosis within 7-14 days after bleomycin treatment (see, e.g., Limjunyawong et al., 2014, Physiological Reports 2:e00249; Daniels et al., 2004, J. Clin. Invest. 114:1308-1316). Bleomycin was administered to anesthetized 6-8 week old 3MR mice by intratracheal aspiration (2.5 U/kg of bleomycin in 50 μl PBS) using a microsprayer syringe (Penn-Century, Inc.) as described in Daniels et al. (2004, J. Clin. Invest. 114:1308-1316). Control mice were administered saline. The day following bleomycin treatment, ganciclovir (GCV) (25 mg/kg in PBS) was administered. 3MR mice were treated via intraperitoneal injection with ganciclovir for 5 consecutive days, followed by 5 days of rest, followed by a second treatment cycle of 5 consecutive days. Untreated mice received an equal volume of vehicle. At 7, 14, and 21 days post-bleomycin treatment, lung function was assessed by monitoring oxygen saturation using the MouseSTAT PhysioSuite pulse oximeter (Kent Scientific). Animals were anesthetized with isoflurane (1.5%) and a toe clip was applied. Mice were monitored for 30 seconds and the average peripheral capillary oxygen saturation (SpO2) measurement over this duration was calculated. […] At 21 days post-bleomycin treatment, airway hyper-reactivity (AHR) of mice was examined. AHR of mice was measured by methacholine challenge while other parameters of lung function (airway mechanics, lung volume and lung compliance) were determined using a SCIREQ flexiVent ventilator. While under ketamine/xylazine anesthesia and subjected to cannulation of the trachea via a tracheostomy (19Fr blunt Luer cannula), airway resistance (elastance) and compliance of mice were assessed at baseline and in response to increasing concentrations of methacholine (0 to 50 mg/ml in PBS) delivered via nebulization (AeroNeb) as described in Aravamudan et al. (Am. J. Physiol. Lung Cell. Mol. Physiol. (2012) 303:L669-L681). Animals were maintained at 37° C., and while under muscle paralysis (pancuronium); airway function was measured by using the FlexiVent™ ventilator and lung mechanics system (SCIREQ, Montreal, Quebec, Canada), which was housed on Stabile 8. […] As shown in FIGS. 60B-C, bleomycin administration reduced static compliance and (dynamic) compliance in vehicle treated mice. […] Mice were euthanized by i.p injection of pentobarbital. Bronchoalveolar lavage (BAL) fluids and lungs is obtained and analyzed. Hydroxyproline content of lungs is measured as described in Christensen et al. (1999, Am. J. Pathol. 155:1773-1779), and quantitative histopathology is performed. RNA is extracted from lung tissue to measure senescence cell markers by qRT-PCR in treated and control mice.

[2] = test system: 3MR or INK-ATTAC mice exposed to cigarette smoke; assay: Chronic cigarette smoke exposure model (COPD); format: in vivo, mouse; settings: after 2 months of cigarette smoke exposure; vs untreated controls
Experimental: In a second animal model for pulmonary diseases (e.g., COPD), mice were exposed to cigarette smoke. The effect of a senolytic agent on the mice exposed to smoke is assessed by senescent cell clearance, lung function, and histopathology.
Six week-old 3MR (n=35) or INK-ATTAC (n=35) mice were chronically exposed to cigarette smoke generated from a Teague TE-10 system, an automatically-controlled cigarette smoking machine that produces a combination of side-stream and mainstream cigarette smoke in a chamber, which is transported to a collecting and mixing chamber where varying amounts of air is mixed with the smoke mixture. The COPD protocol was adapted from the COPD core facility at Johns Hopkins University (at Internet site web.jhu.edu/Biswal/exposure_core/copd.html#Cigarette_Smoke) (Rangasamy et al., 2004, J. Clin. Invest. 114:1248-1259; Yao et al., 2012, J. Clin. Invest. 122:2032-2045). Mice received a total of 6 hours of cigarette smoke exposure per day, 5 days a week for 6 months. Each lighted cigarette (3R4F research cigarettes containing 10.9 mg of total particulate matter (TPM), 9.4 mg of tar, and 0.726 mg of nicotine, and 11.9 mg carbon monoxide per cigarette [University of Kentucky, Lexington, KY]) was puffed for 2 seconds and once every minute for a total of 8 puffs, with the flow rate of 1.05 L/min, to provide a standard puff of 35 cm^3. The smoke machine was adjusted to produce a mixture of side stream smoke (89%) and mainstream smoke (11%) by smoldering 2 cigarettes at one time. The smoke chamber atmosphere was monitored for total suspended particulates (80-120 mg/m^3) and carbon monoxide (350 ppm). Beginning at day 7, (10) INK-ATTAC and (10) 3MR mice were treated with AP20187 (3× per week) or gancyclovir (5 consecutive days of treatment followed by 16 days off drug, repeated until the end of the experiment), respectively. An equal number of mice received the corresponding vehicle. The remaining […] (15 INK-ATTAC and 15 3MR) were evenly split with 5 of each genetically modified strain placed into three different treatment groups. One group (n=10) received Nutlin-3A (25 mg/kg dissolved in 10% DMSO/3% Tween-20 in PBS, treated 14 days consecutively followed by 14 days off drug, repeated until the end of the experiment). […]
After two months of cigarette smoke exposure, lung function was assessed by monitoring oxygen saturation using the MouseSTAT PhysioSuite pulse oximeter (Kent Scientific). […] Mice were monitored for 30 seconds and the average peripheral capillary oxygen saturation (SpO2) measurement over this duration was calculated.

[3] = bleomycin exposed mouse, not statistically significant, group size too small
[4] = 25 mg/kg i.p., 21 days post-bleomycin

| Compound | Lung compliance [1, 3] | Lung elastance [1, 3] | SpO2 levels [2] | Peripheral capillary oxygen saturation (SpO2) ([1]; 25 mg/kg i.p., two cycles of 5 days, 7, 14, 21 days post-bleomycin) | Lung elastance [1, 4] | Static compliance and (dynamic) compliance [1, 4] |
| --- | --- | --- | --- | --- | --- | --- |
| COc1ccc(C2=N[C@@H](c3ccc(Cl)cc3)[C@@H](c3ccc(Cl)cc3)N2C(=O)N2CCNC(=O)C2)c(OC(C)C)c1 [Nutlin-3a] | increased lung compliance | reduced lung elastance | statistically significant increases | – | – | – |
| Nc1nc(O)c2ncn(COC(CO)CO)c2n1 [ganciclovir] | – | – | statistically significant increases | higher SpO2 levels | reduced lung elastance | improved compliance values significantly |
